The values that follow come from US20120214822A1 (ASTRAZENECA AB, priority 2007, published 2012).

The nature of data set [1]: GVS (Dynamic Vapour Sorption) water uptake of crystalline forms. Conditions: ±0.2%; for GVS weight increase: at 80% RH. The format is physicochemical. How it is done:
GVS profiles were measured using a Dynamic Vapour Sorption DVS-1 instrument. The solid sample ca. 1-5 mg was placed into a glass vessel and the weight of the sample was recorded during a dual cycle step method (40 to 90 to 0 to 90 to 0% relative humidity (RH), in steps of 10% RH).

The target of data set [2] is human active recombinant p38α-6His tagged (Homo sapiens, UniProt Q16539). The data set can be described thus: P38 Alpha Enzyme Assay (AlphaScreen, biotinylated-ATF2 substrate).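 Also: 0.5 nM final p38α, reaction started with ATP and run 45 min at 37 °C, phospho-ATF2 read by antibody-based AlphaScreen, background wells quenched with EDTA before ATP.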 Conditions: p38 alpha enzyme inhibition; means of replicate determinations; 4 h pre-incubation at 37° C.; SD of assay 0.2-0.3 log units. It counts as biochemical. In general terms: Bead proximity is the source of the signal in Alpha formats.
Sequence of human active recombinant p38α-6His tagged (Q16539 whole entry): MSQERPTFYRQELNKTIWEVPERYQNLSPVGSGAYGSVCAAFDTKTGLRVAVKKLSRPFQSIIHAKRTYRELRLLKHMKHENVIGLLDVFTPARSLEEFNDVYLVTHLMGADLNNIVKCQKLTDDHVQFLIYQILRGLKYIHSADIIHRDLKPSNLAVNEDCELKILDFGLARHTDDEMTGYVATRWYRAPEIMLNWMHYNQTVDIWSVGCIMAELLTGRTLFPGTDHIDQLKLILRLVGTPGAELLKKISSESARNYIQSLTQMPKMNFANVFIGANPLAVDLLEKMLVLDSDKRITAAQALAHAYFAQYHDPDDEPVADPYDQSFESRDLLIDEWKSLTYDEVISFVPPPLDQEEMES

In data set [1], `CNCCOc1ccccc1C(C)(C)Nc1nccn(-c2cc(C(=O)NC3CC3)ccc2C)c1=O` [example 163 crystalline form B, N-Cyclopropyl-4-methyl-3-[3-[[1-methyl-1-[2-[2-(methylamino)ethoxy]phenyl]ethyl]amino]-2-oxo-1(2H)-pyrazinyl]-benzamide Crystalline Form B] came in with a GVS weight increase of 4.3 % w/w.

`CNCCOc1ccccc1C(C)(C)Nc1nccn(-c2cc(C(=O)NC3CC3)ccc2C)c1=O.Cc1ccc(S(=O)(=O)O)cc1` [N-Cyclopropyl-4-methyl-3-[3-[[1-methyl-1-[2-[2-(methylamino)ethoxy]phenyl]ethyl]amino]-2-oxo-1(2H)-pyrazinyl]-benzamide Tosylate Salt Crystalline Form A]: the GVS weight increase in data set [1] came to 0.1 % w/w.

On to `CNCCOc1ccccc1C1(Nc2nccn(-c3cc(C(=O)NC4CC4)cc(F)c3C)c2=O)CC1` [example 259 crystalline form A, N-Cyclopropyl-3-fluoro-4-methyl-5-[3-[[1-[2-[2-(methylamino)ethoxy]phenyl]cyclopropyl]amino]-2-oxo-1(2H)-pyrazinyl]-benzamide Crystalline Form A], for which the “water uptake as measured by GVS” value in data set [1] (between RH of 0%-80%) is 0.4%. In the case of `Cc1ccc(C(=O)NC2CC2)cc1-n1ccnc(NC[C@H](C)c2ccccc2)c1=O` [Example 57, N-Cyclopropyl-4-methyl-3-[2-oxo-3-[[(2R)-2-phenylpropyl]amino]-1(2H)-pyrazinyl]-benzamide], the negative logarithm of the IC50 (pIC50) – broadly, the IC50 on a negative log10 scale, so that one unit is a factor of ten – in data set [2] is on record as 7.1. Consider `Cc1ccc(C(=O)NC2CC2)cc1-n1ccnc(NCC2CNc3ccccc3C2)c1=O` (centres unmarked) [Example 29, N-Cyclopropyl-4-methyl-3-[2-oxo-3-[[(1,2,3,4-tetrahydro-3-quinolinyl)methyl]amino]-1(2H)-pyrazinyl]-benzamide], for which, in data set [2], the pIC50 was found to be 7. For `Cc1c(F)cc(C(=O)NC2CC2)cc1-n1ccnc(NC2(c3cc(F)ccc3OCCNCCO)CC2)c1=O` [Example 282, N-Cyclopropyl-3-fluoro-5-[3-{[1-(5-fluoro-2-{2-[(2-hydroxyethyl)amino]ethoxy}phenyl)cyclopropyl]amino}-2-oxopyrazin-1(2H)-yl]-4-methylbenzamide], the negative logarithm of the IC50 (pIC50) in data set [2] was determined as 10.3. In the case of `Cc1ccc(C(=O)NC2CC2)cc1-n1ccnc(NC2(c3ccccc3OCCN[C@@H](CO)C(C)C)CC2)c1=O` [Example 293, N-Cyclopropyl-3-[3-({1-[2-(2-{[(1R)-1-(hydroxymethyl)-2-methylpropyl]amino}ethoxy)phenyl]cyclopropyl}amino)-2-oxopyrazin-1(2H)-yl]-4-methylbenzamide], in data set [2], the pIC50 stood at 9.5. Turning to `Cc1ccc(C(=O)NC2CC2)cc1-n1ccnc(NCCN(C)C)c1=O` [Example 5, N-Cyclopropyl-3-[3-[[2-(dimethylamino)ethyl]amino]-2-oxo-1(2H)-pyrazinyl]-4-methyl-benzamide], the pIC50 in data set [2] was 5.9. As for `Cc1ccc(C(=O)NC2CC2)cc1-n1ccnc(NCc2ccccc2O)c1=O` [Example 68, N-Cyclopropyl-3-[3-[[(2-hydroxyphenyl)methyl]amino]-2-oxo-1(2H)-pyrazinyl]-4-methyl-benzamide], the negative logarithm of the IC50 (pIC50) in data set [2] is listed as 7.6. With `Cc1ccc(C(=O)NC2CC2)cc1-n1ccnc(NC[C@H](O)c2ccccc2)c1=O` [Example 55, N-Cyclopropyl-3-[3-[[(2R)-2-hydroxy-2-phenylethyl]amino]-2-oxo-1(2H)-pyrazinyl]-4-methyl-benzamide], in data set [2], the pIC50 was found to be 6.5. Regarding `COc1ccccc1C1CCCN1c1nccn(-c2cc(C(=O)NC3CC3)ccc2C)c1=O` (centres unmarked) [Example 97, N-Cyclopropyl-3-[3-[2-(2-methoxyphenyl)-1-pyrrolidinyl]-2-oxo-1(2H)-pyrazinyl]-4-methyl-benzamide], the pIC50 in data set [2] is recorded as 8.7.

Consider `CNCCOc1c(F)cccc1C1(Nc2nccn(-c3cc(C(=O)NC4CC4)ccc3C)c2=O)CC1` [Example 287, N-Cyclopropyl-3-{3-[(1-{3-fluoro-2-[2-(methylamino)ethoxy]phenyl}cyclopropyl)amino]-2-oxopyrazin-1(2H)-yl}-4-methylbenzamide], for which, in data set [2], the pIC50 amounted to 9.3. For the molecule `Cc1ccc(C(=O)NC2CC2)cc1-n1ccnc(N2CCN(C)CC2)c1=O` [Example 2, N-Cyclopropyl-4-methyl-3-[3-(4-methyl-1-piperazinyl)-2-oxo-1(2H)-pyrazinyl]-benzamide], the pIC50 in data set [2] turned out to be 6.4. Regarding `CCOc1ccccc1CNc1nccn(-c2cc(C(=O)NC3CC3)ccc2C)c1=O` [Example 78, N-Cyclopropyl-3-[3-[[(2-ethoxyphenyl)methyl]amino]-2-oxo-1(2H)-pyrazinyl]-4-methyl-benzamide], the pIC50 in data set [2] was found to be 7.8. Regarding `Cc1ccc(C(=O)NC2CC2)cc1-n1ccnc(N[C@H]2C[C@@H]2c2ccccc2)c1=O` [Example 47, N-Cyclopropyl-4-methyl-3-[2-oxo-3-[[(1S,2R)-2-phenylcyclopropyl]amino]-1(2H)-pyrazinyl]-benzamide], the pIC50 in data set [2] was found to be 7.2. In the case of `CCNCCOc1ccccc1C(CC)(CC)Nc1nccn(-c2cc(C(=O)NC3CC3)ccc2C)c1=O` [Example 267, N-Cyclopropyl-3-[3-[[1-ethyl-1-[2-[2-(ethylamino)ethoxy]phenyl]propyl]amino]-2-oxo-1(2H)-pyrazinyl]-4-methyl-benzamide], the negative logarithm of the IC50 (pIC50) in data set [2] turned out to be 9.5. For the molecule `COCCNCCOc1ccccc1C(C)(C)Nc1nccn(-c2cc(C(=O)NC3CC3)ccc2C)c1=O` [Example 210, N-Cyclopropyl-3-[3-[[1-[2-[2-[(2-methoxyethyl)amino]ethoxy]phenyl]-1-methylethyl]amino]-2-oxo-1(2H)-pyrazinyl]-4-methyl-benzamide], the negative logarithm of the IC50 (pIC50) in data set [2] is on record as 9.5. With `Cc1ccc(C(=O)NC2CC2)cc1-n1ccnc(N[C@@H](c2cccc3ccccc23)[C@@H](C)CN2CCOCC2)c1=O` [Example 145, N-Cyclopropyl-4-methyl-3-[3-[[(1R,2S)-2-methyl-3-(4-morpholinyl)-1-(1-naphthalenyl)propyl]amino]-2-oxo-1(2H)-pyrazinyl]-benzamide], the pIC50 in data set [2] came out at 8.2.

Consider `Cc1ccc(C(=O)NC2CC2)cc1-n1ccnc(N[C@@H](c2ccccc2)[C@@H](C)CN2CCNC[C@H]2C)c1=O` [Example 187, N-Cyclopropyl-4-methyl-3-[3-[[(1R,2S)-2-methyl-3-[(2R)-2-methyl-1-piperazinyl]-1-phenylpropyl]amino]-2-oxo-1(2H)-pyrazinyl]-benzamide], for which the pIC50 in data set [2] stood at 9.8.

Regarding `Cc1ccc(C(=O)NC2CC2)cc1-n1ccnc(NC2(c3ccccc3OCCNCCO)CC2)c1=O` [Example 233, N-Cyclopropyl-3-[3-[[1-[2-[2-[(2-hydroxyethyl)amino]ethoxy]phenyl]cyclopropyl]amino]-2-oxo-1(2H)-pyrazinyl]-4-methyl-benzamide], the pIC50 in data set [2] is on record as 9.9.

Consider `Cc1ccc(C(=O)NC2CC2)cc1-n1ccnc(NC(C)(C)c2ccccc2OCC2CCNCC2)c1=O` [Example 214, N-Cyclopropyl-4-methyl-3-[3-[[1-methyl-1-[2-(4-piperidinylmethoxy)phenyl]ethyl]amino]-2-oxo-1(2H)-pyrazinyl]-benzamide], for which the negative logarithm of the IC50 (pIC50) in data set [2] came to 9.1. `Cc1ccc(C(=O)NC2CC2)cc1-n1ccnc(NCc2nc3ccccc3[nH]2)c1=O` [Example 27, 3-[3-[(1H-Benzimidazol-2-ylmethyl)amino]-2-oxo-1(2H)-pyrazinyl]-N-cyclopropyl-4-methyl-benzamide]: the pIC50 in data set [2] is on record as 6.4.

`COCCCNc1nccn(-c2cc(C(=O)NC3CC3)ccc2C)c1=O` [Example 8, N-Cyclopropyl-3-[3-[(3-methoxypropyl)amino]-2-oxo-1(2H)-pyrazinyl]-4-methyl-benzamide]: the negative-log IC50 (pIC50) in data set [2] is listed as 6.4. On the same count and under the same terms, next, `Cc1ccc(C(=O)NC2CC2)cc1-n1ccnc(NCc2cccc(C)c2C)c1=O` [Example 92, N-Cyclopropyl-3-[3-[[(2,3-dimethylphenyl)methyl]amino]-2-oxo-1(2H)-pyrazinyl]-4-methyl-benzamide]: 7.6; `Cc1cccc([C@H](Nc2nccn(-c3cc(C(=O)NC4CC4)ccc3C)c2=O)[C@@H](C)CO)c1` [Example 273, N-Cyclopropyl-3-[3-[[(1R,2R)-3-hydroxy-1-(3-methylphenyl)-2-methylpropyl]amino]-2-oxo-1(2H)-pyrazinyl]-4-methyl-benzamide]: 9; `Cc1c(F)cc(C(=O)NC2CC2)cc1-n1ccnc(NC2(c3ccccc3OCCNC[C@H](C)O)CC2)c1=O` [Example 263, N-Cyclopropyl-3-fluoro-5-[3-[[1-[2-[2-[[(2S)-2-hydroxypropyl]amino]ethoxy]phenyl]cyclopropyl]amino]-2-oxo-1(2H)-pyrazinyl]-4-methyl-benzamide]: 10.3. For the molecule `CCNC[C@@H](O)COc1ccccc1C1(Nc2nccn(-c3cc(C(=O)NC4CC4)ccc3C)c2=O)CC1` [Example 300, N-Cyclopropyl-3-[3-{[1-(2-{[(2R)-3-(ethylamino)-2-hydroxypropyl]oxy}phenyl)cyclopropyl]amino}-2-oxopyrazin-1(2H)-yl]-4-methylbenzamide], the negative logarithm of the IC50 (pIC50) in data set [2] is 10.3. In the case of `CONC(=O)c1ccc(C)c(-n2ccnc(N[C@@H](c3cccc4ccccc34)[C@@H](C)CN3CCOCC3)c2=O)c1` [Example 161, N-Methoxy-4-methyl-3-[3-[[(1R,2S)-2-methyl-3-(4-morpholinyl)-1-(1-naphthalenyl)propyl]amino]-2-oxo-1(2H)-pyrazinyl]-benzamide], in data set [2], the pIC50 is listed as 9.2. With `Cc1ccc(C(=O)NC2CC2)cc1-n1ccnc(NC(CCN2CCOCC2)c2ccccc2)c1=O` (centres unmarked) [Example 77, N-Cyclopropyl-4-methyl-3-[3-[[3-(4-morpholinyl)-1-phenylpropyl]amino]-2-oxo-1(2H)-pyrazinyl]-benzamide], the negative-log IC50 (pIC50) in data set [2] was 7.5.
